# Results taken from ChEMBL document CHEMBL4507263, “Data for DCP probe BAY-474” (2021).
# Calls of active or inactive are those of the source. The calls are words filed in the database; no cut-off is given here.
# Legend:
# [1] = biological target: Serine/threonine-protein kinase BRSK2 (Homo sapiens) (UniProt Q8IWQ3); conditions: Compound concentration 1000.0 nM
# [2] = tested on: Mast/stem cell growth factor receptor Kit (Homo sapiens), P10721 [V559D,T670I]; conditions: Compound concentration 1000.0 nM
# [3] = biological target: Mitogen-activated protein kinase 7 (Homo sapiens) (UniProt Q13164); conditions: Compound concentration 1000.0 nM
# [4] = biological target: Calcium/calmodulin-dependent protein kinase kinase 1 (Homo sapiens) (UniProt Q8N5S9); conditions: Compound concentration 1000.0 nM
# [5] = biological target: G protein-coupled receptor kinase 3 (Homo sapiens) (UniProt P35626); conditions: Compound concentration 1000.0 nM
# [6] = biological target: Serine/threonine-protein kinase ULK2 (Homo sapiens) (UniProt Q8IYT8); conditions: Compound concentration 1000.0 nM
# [7] = biological target: Serine/threonine-protein kinase Nek3 (Homo sapiens) (UniProt P51956); conditions: Compound concentration 1000.0 nM
# [8] = biological target: Myosin light chain kinase family member 4 (Homo sapiens) (UniProt Q86YV6); conditions: Compound concentration 1000.0 nM
# [9] = biological target: Serine/threonine-protein kinase Nek6 (Homo sapiens) (UniProt Q9HC98); conditions: Compound concentration 1000.0 nM
# [10] = biological target: Serine/threonine-protein kinase Chk2 (Homo sapiens) (UniProt O96017); conditions: Compound concentration 1000.0 nM
# [11] = tested on: Receptor-type tyrosine-protein kinase FLT3 (Homo sapiens), P36888 [N841I]; conditions: Compound concentration 1000.0 nM
# [12] = biological target: Ephrin type-A receptor 5 (Homo sapiens) (UniProt P54756); conditions: Compound concentration 1000.0 nM
# [13] = biological target: Serine/threonine-protein kinase 38 (Homo sapiens) (UniProt Q15208); conditions: Compound concentration 1000.0 nM
# [14] = biological target: 5-hydroxytryptamine receptor 5A (Homo sapiens) (UniProt P47898); conditions: Compound concentration 10.0 uM
# [15] = biological target: ALK tyrosine kinase receptor (Homo sapiens) (UniProt Q9UM73); conditions: Compound concentration 1000.0 nM
# [16] = biological target: Tyrosine-protein kinase JAK2 (Homo sapiens) (UniProt O60674); conditions: Compound concentration 1000.0 nM
# [17] = biological target: Tyrosine-protein kinase Blk (Homo sapiens) (UniProt P51451); conditions: Compound concentration 1000.0 nM
# [18] = biological target: BMP-2-inducible protein kinase (Homo sapiens) (UniProt Q9NSY1); conditions: Compound concentration 1000.0 nM
# [19] = biological target: Mitogen-activated protein kinase 15 (Homo sapiens) (UniProt Q8TD08); conditions: Compound concentration 1000.0 nM
# [20] = biological target: Tyrosine-protein kinase ZAP-70 (Homo sapiens) (UniProt P43403); conditions: Compound concentration 1000.0 nM
# [21] = biological target: Insulin receptor-related protein (Homo sapiens) (UniProt P14616); conditions: Compound concentration 1000.0 nM
# [22] = biological target: Receptor tyrosine-protein kinase erbB-3 (Homo sapiens) (UniProt P21860); conditions: Compound concentration 1000.0 nM
# [23] = biological target: Rhodopsin kinase GRK1 (Homo sapiens) (UniProt Q15835); conditions: Compound concentration 1000.0 nM
# [24] = biological target: Serine/threonine-protein kinase Sgk1 (Homo sapiens) (UniProt O00141); conditions: Compound concentration 1000.0 nM
# [25] = tested on: Leucine-rich repeat serine/threonine-protein kinase 2 (Homo sapiens), Q5S007 [G2019S]; conditions: Compound concentration 1000.0 nM
# [26] = biological target: Serine/threonine-protein kinase RIO2 (Homo sapiens) (UniProt Q9BVS4); conditions: Compound concentration 1000.0 nM
# [27] = biological target: Ribosomal protein S6 kinase alpha-5 (Homo sapiens) (UniProt O75582); conditions: Compound concentration 1000.0 nM
# [28] = tested on: Epidermal growth factor receptor (Homo sapiens), P00533 [L858R,T790M]; conditions: Compound concentration 1000.0 nM
# [29] = biological target: Cyclin-dependent kinase-like 5 (Homo sapiens) (UniProt O76039); conditions: Compound concentration 1000.0 nM
# [30] = biological target: Proto-oncogene tyrosine-protein kinase receptor Ret (Homo sapiens) (UniProt P07949); conditions: Compound concentration 1000.0 nM
# [31] = biological target: Adenosine receptor A3 (Homo sapiens) (UniProt P0DMS8); conditions: Compound concentration 10.0 uM
# [32] = biological target: Tyrosine-protein kinase FRK (Homo sapiens) (UniProt P42685); assay: PTK5 (h) Millipore kinase activity assay; conditions: Compound concentration 1.0 uM
# [33] = biological target: Protein kinase C theta type (Homo sapiens) (UniProt Q04759); assay: PKCtheta (h) Millipore kinase activity assay; conditions: Compound concentration 1.0 uM
# [34] = biological target: Ephrin type-B receptor 4 (Homo sapiens) (UniProt P54760); assay: EphB4 (h) Millipore kinase activity assay; conditions: Compound concentration 1.0 uM
# [35] = biological target: BDNF/NT-3 growth factors receptor (Homo sapiens) (UniProt Q16620); assay: TrkB (h) Millipore kinase activity assay; conditions: Compound concentration 1.0 uM
# [36] = biological target: MAP kinase-activated protein kinase 3 (Homo sapiens) (UniProt Q16644); assay: MAPKAP-K3 (h) Millipore kinase activity assay; conditions: Compound concentration 1.0 uM
# [37] = biological target: Serine/threonine-protein kinase PLK2 (Homo sapiens) (UniProt Q9NYY3); assay: Snk (h) Millipore kinase activity assay; conditions: Compound concentration 1.0 uM
# [38] = biological target: Serine/threonine-protein kinase 17A (Homo sapiens) (UniProt Q9UEE5); assay: DRAK1 (h) Millipore kinase activity assay; conditions: Compound concentration 1.0 uM
# [39] = biological target: Cannabinoid receptor 1 (Homo sapiens) (UniProt P21554); conditions: Compound concentration 10.0 uM
# [40] = biological target: Serine/threonine-protein kinase 3 (Homo sapiens) (UniProt Q13188); assay: MST2 (h) Millipore kinase activity assay; conditions: Compound concentration 1.0 uM
# [41] = biological target: Hepatocyte growth factor receptor (Homo sapiens, UniProt P08581); assay: Cellular mechanistic assay using […] cells and p-MET; assay type: cell-based, MKN-45
# [42] = biological target: Tyrosine-protein kinase Fer (Homo sapiens) (UniProt P16591); assay: Fer (h) Millipore kinase activity assay; conditions: Compound concentration 1.0 uM
# [43] = biological target: Tyrosine-protein kinase Fgr (Homo sapiens) (UniProt P09769); assay: Fgr (h) Millipore kinase activity assay; conditions: Compound concentration 1.0 uM
# [44] = biological target: D(1A) dopamine receptor (Homo sapiens) (UniProt P21728); conditions: Compound concentration 10.0 uM
# [45] = biological target: Melatonin receptor type 1A (Homo sapiens) (UniProt P48039); assay: Inhibition of Melatonin MT1 at 10 µM in the Eurofins-Panlabs radioligand binding assay (Eurofins_assay_251600); parameters: ligand concentration 0.05 nM; conditions: Compound concentration 10.0 uM
# [46] = biological target: Ribosomal protein S6 kinase alpha-2 (Homo sapiens) (UniProt Q15349); assay: Rsk3 (h) Millipore kinase activity assay; conditions: Compound concentration 1.0 uM
# Chain of Serine/threonine-protein kinase ULK2 (Homo sapiens) (Q8IYT8 whole entry): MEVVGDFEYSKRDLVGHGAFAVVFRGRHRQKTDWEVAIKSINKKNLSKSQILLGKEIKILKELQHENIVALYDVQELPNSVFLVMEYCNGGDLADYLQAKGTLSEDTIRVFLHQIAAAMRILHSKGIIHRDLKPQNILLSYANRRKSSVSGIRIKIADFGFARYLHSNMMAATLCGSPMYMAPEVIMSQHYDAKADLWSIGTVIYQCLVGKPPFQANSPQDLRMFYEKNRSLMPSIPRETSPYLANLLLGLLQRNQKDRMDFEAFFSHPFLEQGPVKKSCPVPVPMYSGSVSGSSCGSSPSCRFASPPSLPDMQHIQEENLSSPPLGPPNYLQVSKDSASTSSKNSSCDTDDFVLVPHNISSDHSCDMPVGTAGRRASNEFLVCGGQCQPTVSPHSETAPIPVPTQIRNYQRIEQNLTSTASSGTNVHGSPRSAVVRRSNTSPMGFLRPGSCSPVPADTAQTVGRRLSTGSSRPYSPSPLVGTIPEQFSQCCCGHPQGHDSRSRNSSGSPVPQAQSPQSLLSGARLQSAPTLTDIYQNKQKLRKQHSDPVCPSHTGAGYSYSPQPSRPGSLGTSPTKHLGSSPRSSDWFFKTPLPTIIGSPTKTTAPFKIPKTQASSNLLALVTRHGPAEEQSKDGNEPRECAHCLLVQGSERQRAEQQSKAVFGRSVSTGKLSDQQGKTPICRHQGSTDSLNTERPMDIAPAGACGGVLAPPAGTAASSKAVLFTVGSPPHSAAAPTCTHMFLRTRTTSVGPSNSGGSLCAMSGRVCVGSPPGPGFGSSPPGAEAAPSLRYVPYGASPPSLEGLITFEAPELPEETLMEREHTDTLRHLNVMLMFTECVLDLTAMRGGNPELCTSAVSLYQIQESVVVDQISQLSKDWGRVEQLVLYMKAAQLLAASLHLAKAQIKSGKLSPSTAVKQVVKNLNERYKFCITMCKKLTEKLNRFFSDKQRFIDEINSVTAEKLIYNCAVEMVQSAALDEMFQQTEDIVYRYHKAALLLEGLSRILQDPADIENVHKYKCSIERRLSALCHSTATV
# Chain of Serine/threonine-protein kinase 38 (Homo sapiens) (Q15208 2-465 limits assumed): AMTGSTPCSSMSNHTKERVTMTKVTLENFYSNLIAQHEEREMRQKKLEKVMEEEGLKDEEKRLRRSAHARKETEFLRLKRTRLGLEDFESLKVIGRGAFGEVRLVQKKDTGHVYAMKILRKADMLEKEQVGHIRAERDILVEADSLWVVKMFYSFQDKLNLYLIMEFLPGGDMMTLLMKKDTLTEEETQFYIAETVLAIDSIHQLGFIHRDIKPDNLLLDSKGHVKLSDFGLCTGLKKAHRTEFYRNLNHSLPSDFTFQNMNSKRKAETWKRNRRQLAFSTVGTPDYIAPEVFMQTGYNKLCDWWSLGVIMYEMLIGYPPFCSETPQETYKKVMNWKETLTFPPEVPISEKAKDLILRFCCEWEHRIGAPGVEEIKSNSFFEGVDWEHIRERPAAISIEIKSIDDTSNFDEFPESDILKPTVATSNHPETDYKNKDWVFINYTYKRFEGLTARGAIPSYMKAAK
# Chain of Cannabinoid receptor 1 (Homo sapiens) (P21554 whole entry): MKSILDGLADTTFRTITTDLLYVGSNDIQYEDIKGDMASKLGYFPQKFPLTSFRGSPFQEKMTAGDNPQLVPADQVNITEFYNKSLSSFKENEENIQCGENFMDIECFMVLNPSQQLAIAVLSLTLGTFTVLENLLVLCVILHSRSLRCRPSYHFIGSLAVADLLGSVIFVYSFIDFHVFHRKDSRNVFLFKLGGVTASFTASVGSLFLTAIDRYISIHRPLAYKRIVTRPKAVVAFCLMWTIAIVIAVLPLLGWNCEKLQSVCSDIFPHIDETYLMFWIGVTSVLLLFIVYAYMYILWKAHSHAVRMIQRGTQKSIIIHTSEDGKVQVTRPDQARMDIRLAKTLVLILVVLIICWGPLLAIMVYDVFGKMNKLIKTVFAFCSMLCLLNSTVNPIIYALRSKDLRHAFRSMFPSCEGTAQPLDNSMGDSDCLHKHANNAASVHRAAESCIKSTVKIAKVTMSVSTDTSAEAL
# Chain of Tyrosine-protein kinase ZAP-70 (Homo sapiens) (P43403 whole entry): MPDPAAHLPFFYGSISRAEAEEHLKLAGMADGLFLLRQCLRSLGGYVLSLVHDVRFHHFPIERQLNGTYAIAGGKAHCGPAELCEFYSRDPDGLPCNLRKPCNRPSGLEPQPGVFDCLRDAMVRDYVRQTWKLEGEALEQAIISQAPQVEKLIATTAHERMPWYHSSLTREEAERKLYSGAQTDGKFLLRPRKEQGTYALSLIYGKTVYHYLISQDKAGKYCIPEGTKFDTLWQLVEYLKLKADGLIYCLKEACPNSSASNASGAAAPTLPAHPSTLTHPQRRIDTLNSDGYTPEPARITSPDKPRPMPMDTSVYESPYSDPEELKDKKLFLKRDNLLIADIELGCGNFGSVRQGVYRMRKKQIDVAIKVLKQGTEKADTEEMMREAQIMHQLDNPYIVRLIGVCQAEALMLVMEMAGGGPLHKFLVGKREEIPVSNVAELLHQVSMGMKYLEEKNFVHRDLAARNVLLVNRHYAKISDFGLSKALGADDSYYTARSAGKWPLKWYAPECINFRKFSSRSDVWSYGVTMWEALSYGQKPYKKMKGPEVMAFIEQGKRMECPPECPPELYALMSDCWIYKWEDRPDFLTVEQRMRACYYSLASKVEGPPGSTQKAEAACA
# Chain of Serine/threonine-protein kinase RIO2 (Homo sapiens) (Q9BVS4 whole entry, looked up): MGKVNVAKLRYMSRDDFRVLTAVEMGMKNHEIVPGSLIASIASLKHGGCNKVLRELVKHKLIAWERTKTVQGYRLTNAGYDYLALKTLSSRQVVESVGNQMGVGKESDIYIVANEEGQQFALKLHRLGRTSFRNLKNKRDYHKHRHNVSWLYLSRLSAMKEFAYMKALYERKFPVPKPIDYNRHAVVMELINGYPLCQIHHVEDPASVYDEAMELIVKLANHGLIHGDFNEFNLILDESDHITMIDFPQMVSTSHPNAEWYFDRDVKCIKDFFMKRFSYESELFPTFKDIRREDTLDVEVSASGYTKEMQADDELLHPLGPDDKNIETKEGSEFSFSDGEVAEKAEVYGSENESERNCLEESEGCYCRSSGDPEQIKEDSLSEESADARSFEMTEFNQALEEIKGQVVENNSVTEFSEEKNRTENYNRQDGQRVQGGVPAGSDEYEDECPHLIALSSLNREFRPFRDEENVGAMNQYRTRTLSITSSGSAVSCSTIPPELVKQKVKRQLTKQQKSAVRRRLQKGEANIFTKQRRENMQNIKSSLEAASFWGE
# Chain of Serine/threonine-protein kinase Nek3 (Homo sapiens) (P51956 whole entry): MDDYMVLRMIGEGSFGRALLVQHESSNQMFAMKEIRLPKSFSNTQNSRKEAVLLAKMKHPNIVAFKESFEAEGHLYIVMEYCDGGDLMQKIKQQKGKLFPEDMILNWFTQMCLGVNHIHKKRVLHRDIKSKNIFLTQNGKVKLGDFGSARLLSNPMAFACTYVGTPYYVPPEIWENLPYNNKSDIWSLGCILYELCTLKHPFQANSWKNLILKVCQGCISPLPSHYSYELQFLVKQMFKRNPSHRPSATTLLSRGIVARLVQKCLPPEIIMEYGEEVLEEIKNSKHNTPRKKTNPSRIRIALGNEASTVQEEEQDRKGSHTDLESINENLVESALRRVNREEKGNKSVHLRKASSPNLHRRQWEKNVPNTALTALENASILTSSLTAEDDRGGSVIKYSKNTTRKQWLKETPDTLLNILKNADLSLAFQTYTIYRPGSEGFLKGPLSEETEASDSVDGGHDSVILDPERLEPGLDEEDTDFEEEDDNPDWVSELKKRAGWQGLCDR
# Chain of Ephrin type-A receptor 5 (Homo sapiens) (P54756 whole entry): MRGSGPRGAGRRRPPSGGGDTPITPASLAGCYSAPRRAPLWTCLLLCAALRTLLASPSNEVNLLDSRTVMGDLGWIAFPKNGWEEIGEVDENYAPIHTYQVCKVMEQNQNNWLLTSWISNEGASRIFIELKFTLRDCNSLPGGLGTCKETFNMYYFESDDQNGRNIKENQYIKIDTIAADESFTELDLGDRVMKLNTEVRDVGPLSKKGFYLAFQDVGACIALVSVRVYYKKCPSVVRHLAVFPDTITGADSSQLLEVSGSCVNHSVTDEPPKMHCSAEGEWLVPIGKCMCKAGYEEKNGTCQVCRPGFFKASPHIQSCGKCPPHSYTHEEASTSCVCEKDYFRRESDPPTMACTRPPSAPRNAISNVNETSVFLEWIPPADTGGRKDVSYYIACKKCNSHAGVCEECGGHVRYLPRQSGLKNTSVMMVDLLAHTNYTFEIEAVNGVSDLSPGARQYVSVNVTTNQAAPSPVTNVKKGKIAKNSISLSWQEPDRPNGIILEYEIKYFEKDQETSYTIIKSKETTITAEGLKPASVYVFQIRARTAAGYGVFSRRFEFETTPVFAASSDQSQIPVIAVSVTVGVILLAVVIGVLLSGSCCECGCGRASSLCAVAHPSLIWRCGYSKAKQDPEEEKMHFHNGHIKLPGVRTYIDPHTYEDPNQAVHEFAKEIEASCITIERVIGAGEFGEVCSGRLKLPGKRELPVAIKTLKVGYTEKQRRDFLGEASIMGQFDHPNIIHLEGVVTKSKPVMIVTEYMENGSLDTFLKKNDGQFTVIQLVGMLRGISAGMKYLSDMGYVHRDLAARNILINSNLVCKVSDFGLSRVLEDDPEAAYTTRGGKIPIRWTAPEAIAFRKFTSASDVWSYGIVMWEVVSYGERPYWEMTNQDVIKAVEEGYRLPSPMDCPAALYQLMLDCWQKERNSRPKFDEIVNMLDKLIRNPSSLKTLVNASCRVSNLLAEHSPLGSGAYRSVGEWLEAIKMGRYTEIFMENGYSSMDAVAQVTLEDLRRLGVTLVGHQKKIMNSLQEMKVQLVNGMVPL
# Chain of Serine/threonine-protein kinase Nek6 (Homo sapiens) (Q9HC98 whole entry): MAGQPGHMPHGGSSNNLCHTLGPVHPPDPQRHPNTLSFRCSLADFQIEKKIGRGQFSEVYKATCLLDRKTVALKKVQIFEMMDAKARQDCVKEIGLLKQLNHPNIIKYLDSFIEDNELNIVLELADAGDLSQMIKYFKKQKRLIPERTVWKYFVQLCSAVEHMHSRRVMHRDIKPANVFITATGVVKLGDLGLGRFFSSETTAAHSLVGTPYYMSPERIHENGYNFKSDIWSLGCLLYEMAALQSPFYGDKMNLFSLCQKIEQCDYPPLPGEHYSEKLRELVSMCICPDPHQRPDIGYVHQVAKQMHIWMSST
smiles,measurement,setting,value
CC1=C(C#N)[C@@H](c2ccc3[nH]nc(C)c3c2)C(C#N)=C(c2ccc(Cl)cc2)N1 [BAY-827],residual activity,[1],100%
same,residual activity,[2],84.4%
same,residual activity,[3],90%
same,residual activity,[4],93.7%
same,residual activity,[5],85.3%
same,residual activity,[6],100%
same,residual activity,[7],100%
same,residual activity,[8],100%
same,residual activity,[9],100%
same,residual activity,[10],100%
same,residual activity,[11],100%
same,residual activity,[12],100%
same,residual activity,[13],92.3%
same,inhibition,[14],4.53%
same,residual activity,[15],84.7%
same,residual activity,[16],100%
same,residual activity,[17],100%
same,residual activity,[18],100%
same,residual activity,[19],100%
same,residual activity,[20],85.4%
same,residual activity,[21],100%
same,residual activity,[22],63.9%
same,residual activity,[23],65.5%
same,residual activity,[24],100%
same,residual activity,[25],79.5%
same,residual activity,[26],100%
same,residual activity,[27],100%
same,residual activity,[28],100%
same,residual activity,[29],88.5%
same,residual activity,[30],100%
CC1=C(C#N)C(c2ccc3[nH]nc(C)c3c2)C(C#N)=C(C)N1 [BAY-474],inhibition,[31],13%
same,inhibition,[32],2%
same,inhibition,[33],15%
same,inhibition,[34],-4%
same,inhibition,[35],-2%
same,inhibition,[36],-5%
same,inhibition,[37],3%
same,inhibition,[38],-6%
same,inhibition,[39],17%
same,inhibition,[40],7%
same,IC50,[41],2.9 nM (active)
same,inhibition,[42],22%
same,inhibition,[43],14%
same,inhibition,[44],3%
same,inhibition,[45],2%
same,inhibition,[46],51%
